We go through 21 molecules from US12421249B2, “Inhibitors of APOL1 and methods of using same” (Vertex Pharmaceuticals Incorporated, priority 2020, dated 2025).

Where two headings read alike, the source gives them in different places.

In one assay the target is T1, APOL1 (Homo sapiens, UniProt O14791).
T1 sequence (O14791 1-398 S342G/I384M): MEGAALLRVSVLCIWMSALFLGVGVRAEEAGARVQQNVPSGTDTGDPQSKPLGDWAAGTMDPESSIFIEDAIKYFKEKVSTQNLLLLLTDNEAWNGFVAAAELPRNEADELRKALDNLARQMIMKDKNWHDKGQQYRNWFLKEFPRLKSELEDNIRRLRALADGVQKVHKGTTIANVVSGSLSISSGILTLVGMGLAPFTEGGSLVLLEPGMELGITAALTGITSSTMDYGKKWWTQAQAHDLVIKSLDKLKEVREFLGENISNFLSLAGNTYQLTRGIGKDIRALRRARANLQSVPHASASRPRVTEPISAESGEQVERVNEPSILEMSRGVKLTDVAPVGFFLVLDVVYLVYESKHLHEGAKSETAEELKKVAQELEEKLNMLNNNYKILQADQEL
As to the kind of experiment: Multi-Tox Assay (MultiTox-Fluor Multiplex Cytotoxicity Assay in tet-inducible APOL1 T-REx-HEK293 cells; Table 46 does not say which APOL1 variant G0/G1/G2). In kind it is cell-based. The conditions noted are these: APOL1 variant not given; for IC50: IP50 = IC50 for cell proliferation.

The next assay deals with T2, APOL1 G1 (Homo sapiens, UniProt O14791, I384M/S342G).
T2 sequence (O14791 28-398 S342G/I384M): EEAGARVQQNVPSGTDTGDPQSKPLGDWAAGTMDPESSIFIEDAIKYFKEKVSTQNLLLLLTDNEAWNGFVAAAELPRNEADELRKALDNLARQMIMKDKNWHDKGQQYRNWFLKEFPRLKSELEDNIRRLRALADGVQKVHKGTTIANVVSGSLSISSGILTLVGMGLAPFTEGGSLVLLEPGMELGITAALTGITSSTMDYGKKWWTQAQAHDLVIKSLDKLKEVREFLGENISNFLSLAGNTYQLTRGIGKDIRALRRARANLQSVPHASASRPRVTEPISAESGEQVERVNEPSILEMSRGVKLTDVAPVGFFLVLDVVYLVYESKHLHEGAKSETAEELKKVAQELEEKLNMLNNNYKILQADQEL
As to the kind of experiment: Trypanosoma brucei brucei Lysis Assay Using APOL1 Recombinant Protein (AlamarBlue viability readout). The conditions noted are these: for IC50: IP50 = IC50 for cell proliferation, read-out: Trypanosome Assay IP50; for Emax: read-out: Trypanosome Assay Max Activity (%). In kind it is cell-based. An excerpt: Trypanosoma brucei brucei is a blood stream parasite to which human, gorillas, and baboons are immune due to the presence of the APOL1 protein in their HDL particles. The protein is uptaken by the parasite via the TbHpHb receptor located in its flagellar pocket and is bonded by the Hpr protein contained in the HDL particles which triggers the receptor endocytosis by the parasite.
Following endocytosis, the formed vesicle containing the HDL particle matures from early to late endosome, and subsequently to lysosome. The concomitant pH change in the lumen of the vesicle triggers the insertion of the APOL1 protein into the membrane of the late endosome/lysosome and hereby triggers lysosomal membrane permeabilization and as a further downstream event, trypanosome lysis. Trypanosoma brucei brucei is sensitive to lysis by all three APOL1 variants (G0, G1, and G2).
The Trypanosoma brucei brucei lysis assay is a lysis assay of the parasite using recombinant APOL1 protein variant followed by a fluorescent detection method of viability by the addition of AlamarBlue reagent to the assay well, a general metabolic redox indicator (AlamarBlue assay).
Briefly, the AlamarBlue active compound, resazurin, a blue, water soluble, non-toxic and cell permeable molecule, which can be followed by absorbance, is reduced by various metabolic pathways into resorufin, a red compound which can be followed by either absorbance or fluorescence. The assay allows the calculation of the percent viability (percent of living Trypanosomes remaining in each well) at the end of a lysis relative to the untreated condition by interpolation of fluorescent values (FLU) on a standard curve with a known amount of seeded trypanosome/well.
Trypanosoma brucei brucei (ATCC, Cat. No. PRA-382)
• Lister 427 VSG 221 bloodstream form.
Equipment • E1-Clip Tip pipette 12 channel adjustable 2-125 μL, Cat. No. 4672070BT • ThermoFisher MultiDrop 384, Cat. No. 5840300 • Multidrop • Agilent Bravo, Cat. No. G5409A • Bravo • SpectraMax M5 Assay Ready Plates (ARPs) • ARPs comes in two formats: • […] final top concentration with a 2.5 fold dilution down. • […] final top concentration with a 3 fold dilution down. • Both have a 10 point Dose response. • 0.1% DMSO final in the Black Assay Plate. • Compounds are diluted 1000 fold in the Black Assay Plate. • Each plate is designed for 14 compounds in duplicate. • In the final Black Assay Plate: • Column 1: Media only (no APOL1) (100% viable) • Column 2-23: 0.05 μg/mL APOL1 (˜EC90) (10% viable with APOL1) • Column 24: 0.1 μg/mL APOL1 (EC100) (Approx. […] Step 2, Day 4 • Centrifuge at 800×g for 5 minutes at room temperature. • Resuspend in 1 mL media. • Make a 1:25 fold dilution (10 μL/240 μL media). • Count on a hemocytometer (after adding parasites). • Let sit for 1-2 minutes for the parasites to settle. • Count should be approximately 100 viable motile parasites/16 grid or approximately 25×10^6 parasites/flask. • Passage the parasites by adding 1×10^6 parasites/T75 flask in 20 mL media. • Passage the parasites by adding 2.33×10^6 parasites/T175 flask in 46.6 mL media. • For every T75 flask should make enough for approximately 1.5×384 well assay plates. • For every T175 flask should make enough for approximately 3.8×384 well assay plates. Step 3, Day 6 • Centrifuge at 800×g for 5 minutes. • Resuspend in 3 mL assay media (No phenol red, no FBS) per 75 starting flask. • Resuspend in 7 mL assay media (No phenol red, no FBS) per 175 flask • Make a 1:25 fold dilution. • Count by hemocytometer. • Every T75 flask set up should have approximately 75×10^6 parasites/flask (verify doubling time=8.7 hours±1 hour). • Every T175 flask set up should have approximately 175×10^6 parasites/flask (verify doubling time=8.7 hours±1 hour). • Require 46×10^6 parasites per 384 well plate (at 120,000 parasites per well). […]
(Resazurin is reduced to fluorescent resorufin, in cell work by metabolically active cells.)

Consider `CC1CC2(CC(C3CC3)N1)OCCc1cc(Cl)sc12` (mixture of isomers) [Compound 211, (2S,6S)-2-chloro-2′-cyclopropyl-6′-methyl-spiro[4,5-dihydrothieno[2,3-c]pyran-7,4′-piperidine]], for which, on APOL1, the IC90 lay in the range of 50 to 500 nM, the “Multi-Tox Assay Max Activity (%)” value turned out to be 99.6% and the IC50 was < 50 nM. Moreover, at APOL1 G1 (Trypanosome Assay), the IC50 lay in the range of 50 to 500 nM and the Emax is 113%.

As for `CC1CC2(CC(C(C)C)N1)OCCc1cc(Cl)sc12` (mixture of isomers) [Compound 214], the IC50 on APOL1 was < 50 nM. For the same molecule, on APOL1 G1 (Trypanosome Assay), the IC50 lay within 50 to 500 nM and the Emax came to 109%.

Take `CCC1CC2(CC(C)N1)OCCc1cc(Cl)sc12` (mixture of isomers) [Compound 215]: at APOL1, the IC50 was < 50 nM. At APOL1 G1 (Trypanosome Assay), the IC50 was 50 to 500 nM and the Emax came out at 112%.

`CC1CC2(CC(C3CCOCC3)N1)OCCc1cc(Cl)sc12` (mixture of isomers) [Compound 216] had an IC50 on APOL1 of 50 to 500 nM. In addition, on APOL1 G1 (Trypanosome Assay), the IC50 was in the range of 50 to 500 nM and the Emax was determined as 104%.

Consider `CC1CC2(CC(C3CC3)N1)OCCc1cc(Cl)sc12` (mixture of isomers) [Compound 217], for which, at APOL1, the IC50 was < 50 nM. At APOL1 G1 (Trypanosome Assay), the IC50 was < 50 nM and the Emax is 110%.

`CC1CC2(CC(C3CCC3)N1)OCCc1cc(Cl)sc12` (mixture of isomers) [Compound 218]: at APOL1, the IC50 was < 50 nM. Moreover, at APOL1 G1 (Trypanosome Assay), the IC50 lay within 50 to 500 nM and the Emax is 111%.

As for `CC1CC2(CC(c3cccnc3)N1)OCCc1cc(Cl)sc12` (racemic) [Compound 20, 2-chloro-2′-methyl-6′-(3-pyridyl)spiro[4,5-dihydrothieno[2,3-c]pyran-7,4′-piperidine]], the IC50 against APOL1 and at APOL1 G1 (Trypanosome Assay) was < 50 nM throughout. In addition, at APOL1 G1, the Emax came out at 116%.

`Cc1cc([C@@H]2C[C@]3(C[C@H](C)N2)OCCc2cc(Cl)sc23)ccn1` (racemic) [Compound 21, (2S)-2-chloro-2′-methyl-6′-(2-methyl-4-pyridyl)spiro[4,5-dihydrothieno[2,3-c]pyran-7,4′-piperidine]]: on APOL1, the IC50 was < 50 nM. On APOL1 G1 (Trypanosome Assay), the IC50 was < 50 nM and the Emax worked out at 108%.

`CC1CC2(CC(c3cn(C)cn3)N1)OCCc1cc(Cl)sc12` (racemic) [Compound 22]: at APOL1, the IC90 was < 50 nM, the “Multi-Tox Assay Max Activity (%)” value stood at 99.7% and the IC50 was < 50 nM. At APOL1 G1 (Trypanosome Assay), the IC50 was < 50 nM and the Emax was determined as 129%.

Take `Cc1noc2cc([C@@H]3C[C@]4(C[C@H](C)N3)OCCc3cc(Cl)sc34)ccc12` (racemic) [Compound 25]: at APOL1, the “Multi-Tox Assay Max Activity (%)” value was found to be 100.0% and the IC50 is < 50 nM. Also, on APOL1 G1 (Trypanosome Assay), the IC50 is < 50 nM and the Emax turned out to be 109%.

Regarding `C[C@H]1C[C@@]2(C[C@@H](c3cnc4c(cnn4C)c3)N1)OCCc1cc(Cl)sc12` (racemic) [Compound 26], on APOL1, the “Multi-Tox Assay Max Activity (%)” value is 100.0% and the IC50 was < 50 nM. Moreover, at APOL1 G1 (Trypanosome Assay), the IC50 is < 50 nM and the Emax turned out to be 110%.

Take `C[C@H]1C[C@@]2(C[C@@H](c3ccc4oc(=O)n(C)c4c3)N1)OCCc1cc(Cl)sc12` (racemic) [Compound 28]: on APOL1, the IC90 was < 50 nM, the “Multi-Tox Assay Max Activity (%)” value was 100.0% and the IC50 is < 50 nM. For the same molecule, on APOL1 G1 (Trypanosome Assay), the IC50 is < 50 nM and the Emax came to 104%.

Regarding `Cc1cc([C@@H]2C[C@]3(C[C@H](C)N2)OCCc2cc(Cl)sc23)no1` (racemic) [Compound 29], at APOL1, the IC90 was < 50 nM, the “Multi-Tox Assay Max Activity (%)” value was found to be 100.0% and the IC50 was < 50 nM. Also, at APOL1 G1 (Trypanosome Assay), the IC50 was < 50 nM and the Emax amounted to 109%.

Turning to `C[C@H]1C[C@@]2(C[C@@H](c3ccc4c(c3)n(C)c(=O)n4C)N1)OCCc1cc(Cl)sc12` (racemic) [Compound 32], on APOL1, the IC90 is < 50 nM, the “Multi-Tox Assay Max Activity (%)” value was 99.6% and the IC50 is < 50 nM. Besides, at APOL1 G1 (Trypanosome Assay), the IC50 was < 50 nM and the Emax worked out at 116%.

`COCCOCCOc1ccc([C@@H]2C[C@]3(C[C@H](C)N2)OCCc2cc(Cl)sc23)cc1` (racemic) [Compound 36]: on APOL1, the concentration for an effect of 90% (IC90) is < 50 nM, the “Multi-Tox Assay Max Activity (%)” value stood at 100.0% and the IC50 is < 50 nM. In addition, at APOL1 G1 (Trypanosome Assay), the IC50 was < 50 nM and the Emax is 118%.

With `COc1ccc([C@@H]2C[C@]3(C[C@H](C)N2)OCCc2cc(Cl)sc23)c(F)c1` (racemic) [Compound 44], at APOL1, the “Multi-Tox Assay Max Activity (%)” value was 99.5% and the IC50 was < 50 nM. On APOL1 G1 (Trypanosome Assay), the IC50 was < 50 nM and the Emax was 106%.

For `C[C@H]1C[C@@]2(C[C@@H](c3ccc(C(N)=O)cc3)N1)OCCc1cc(Cl)sc12` (racemic) [Compound 47], the IC50 against APOL1 and on APOL1 G1 (Trypanosome Assay) was < 50 nM each time.

`Cc1n[nH]c2ncc([C@@H]3C[C@]4(C[C@H](C)N3)OCCc3cc(Cl)sc34)cc12` (racemic) [Compound 48]: at APOL1, the “Multi-Tox Assay Max Activity (%)” value was 99.0% and the IC50 is < 50 nM. Moreover, on APOL1 G1 (Trypanosome Assay), the IC50 was < 50 nM and the Emax was 102%.

Turning to `COc1ccc([C@@H]2C[C@]3(C[C@H](C)N2)OCCc2cc(Cl)sc23)cn1` (racemic) [Compound 49], the IC50 at APOL1 and on APOL1 G1 (Trypanosome Assay) was < 50 nM each time. Besides, the Emax on APOL1 G1 (Trypanosome Assay) was found to be 104%.

For `CC(=O)Nc1ccc([C@@H]2C[C@]3(C[C@H](C)N2)OCCc2cc(Cl)sc23)cc1` (racemic) [Compound 50], on APOL1, the “Multi-Tox Assay Max Activity (%)” value worked out at 99.7% and the IC50 was < 50 nM. For the same molecule, at APOL1 G1 (Trypanosome Assay), the IC50 is < 50 nM and the Emax was determined as 103%.

Consider `C[C@H]1C[C@@]2(C[C@@H](c3cnc(C4CC4)nc3)N1)OCCc1cc(Cl)sc12` (racemic) [Compound 52], for which, at APOL1, the “Multi-Tox Assay Max Activity (%)” value was found to be 99.7% and the IC50 is < 50 nM. For the same molecule, on APOL1 G1 (Trypanosome Assay), the IC50 was < 50 nM and the Emax was determined as 104%.

As a reminder, the IC90 is the concentration at which the effect reaches the 90% level.
